Experimental data: the supplement of paper PMC10307832

Legend:
Assay in all cases: relative viability (nuclei count vs DMSO), 5 days (fraction); higher = more cells survive
Vismodegib + Palbociclib = compound: CS(=O)(=O)c1ccc(C(=O)Nc2ccc(Cl)c(-c3ccccn3)c2)c(Cl)c1 [Vismodegib] + CC(=O)c1c(C)c2cnc(Nc3ccc(N4CCNCC4)cn3)nc2n(C2CCCC2)c1=O [Palbociclib] (partner 0.5 µM)
Summary of the method: (§1)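 Lung cancer cell lines were seeded in 1536-well plates and dosed by pin tool the next day, with either a single drug or a fixed anchor-drug dose combined with five library-drug doses (not always all listed) spaced in √10 steps. Five days later, one step fixed the cells and stained their nuclei (final 0.05% Triton X-100, 1% formaldehyde, 1 ug/ml Hoechst), and nuclei were counted on 4× images. Relative viability is the nuclei count in treated wells divided by the count in vehicle wells, and each value is the median of duplicate plates.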

VE-821 + Navitoclax = compound: CS(=O)(=O)c1ccc(-c2cnc(N)c(C(=O)Nc3ccccc3)n2)cc1 [VE-821] + CC1(C)CCC(c2ccc(Cl)cc2)=C(CN2CCN(c3ccc(C(=O)NS(=O)(=O)c4ccc(N[C@H](CCN5CCOCC5)CSc5ccccc5)c(S(=O)(=O)C(F)(F)F)c4)cc3)CC2)C1 [Navitoclax] (partner 0.5 µM)
Summary of the method: as §1

Ruxolitinib + Pemetrexed = compound: N#CC[C@H](C1CCCC1)n1cc(-c2ncnc3[nH]ccc23)cn1 [Ruxolitinib] + Nc1nc2[nH]cc(CCc3ccc(C(=O)N[C@@H](CCC(=O)O)C(=O)O)cc3)c2c(=O)[nH]1 [Pemetrexed] (partner 0.2 µM)
Summary of the method: as §1

Vismodegib + Navitoclax = compound: CS(=O)(=O)c1ccc(C(=O)Nc2ccc(Cl)c(-c3ccccn3)c2)c(Cl)c1 [Vismodegib] + CC1(C)CCC(c2ccc(Cl)cc2)=C(CN2CCN(c3ccc(C(=O)NS(=O)(=O)c4ccc(N[C@H](CCN5CCOCC5)CSc5ccccc5)c(S(=O)(=O)C(F)(F)F)c4)cc3)CC2)C1 [Navitoclax] (partner 0.5 µM)
Summary of the method: as §1

Cell Line | relative viability (Vismodegib + Palbociclib; first compound 0.08 µM) | relative viability (Vismodegib + Palbociclib; first compound 0.253 µM) | relative viability (Vismodegib + Palbociclib; first compound 0.8 µM) | relative viability (Vismodegib + Palbociclib; first compound 2.53 µM) | relative viability (Vismodegib + Palbociclib; first compound 8 µM) | relative viability (VE-821 + Navitoclax; first compound 0.08 µM) | relative viability (VE-821 + Navitoclax; first compound 0.253 µM) | relative viability (VE-821 + Navitoclax; first compound 0.8 µM) | relative viability (VE-821 + Navitoclax; first compound 2.53 µM) | relative viability (VE-821 + Navitoclax; first compound 8 µM) | relative viability (Ruxolitinib + Pemetrexed; first compound 0.08 µM) | relative viability (Ruxolitinib + Pemetrexed; first compound 0.253 µM) | relative viability (Ruxolitinib + Pemetrexed; first compound 0.8 µM) | relative viability (Ruxolitinib + Pemetrexed; first compound 2.53 µM) | relative viability (Ruxolitinib + Pemetrexed; first compound 8 µM) | relative viability (Vismodegib + Navitoclax; first compound 0.08 µM) | relative viability (Vismodegib + Navitoclax; first compound 0.253 µM) | relative viability (Vismodegib + Navitoclax; first compound 0.8 µM) | relative viability (Vismodegib + Navitoclax; first compound 2.53 µM) | relative viability (Vismodegib + Navitoclax; first compound 8 µM)
NCI-H23 | 0.505 | 0.439 | 0.544 | 0.412 | 0.522 | 0.856 | 0.797 | 0.553 | 0.747 | 0.491 | 0.779 | 0.787 | 0.755 | 0.708 | 0.564 | 0.89 | 0.735 | 0.926 | 0.811 | 0.86
LU99A | 0.387 | 0.4 | 0.393 | 0.409 | 0.433 | 0.892 | 0.858 | 0.781 | 0.759 | 0.336 | 0.171 | 0.179 | 0.178 | 0.186 | 0.195 | 0.722 | 0.794 | 0.79 | 0.881 | 0.71
SW 1573 | 0.395 | 0.398 | 0.363 | 0.406 | 0.451 | 1.12 | 0.992 | 1.03 | 0.796 | 1.1 | 0.878 | 0.855 | 0.957 | 0.768 | 0.867 | 0.808 | 0.94 | 0.886 |  | 1.04
NCI-H2009 | 0.208 | 0.238 | 0.188 | 0.252 | 0.276 | 1.16 | 1.13 | 1.13 | 1.26 | 1.16 | 1.03 | 1.03 | 1.03 | 0.936 | 0.745 | 1.15 | 1.12 | 1.2 | 1.17 | 1.17
HCC-15 | 0.718 | 0.715 | 0.794 | 0.838 | 0.738 | 0.813 | 0.706 | 0.778 | 0.772 | 0.676 | 0.223 | 0.227 | 0.212 | 0.194 | 0.203 | 0.675 | 0.678 | 0.689 | 0.665 | 0.676
EPLC-272H | 0.307 | 0.305 | 0.355 | 0.342 | 0.311 | 1.52 | 1.13 | 1.33 | 1.12 | 1.35 | 0.357 | 0.372 | 0.377 | 0.313 | 0.218 | 1.01 | 1.2 | 1.09 | 1.09 | 1.09
NCI-H1792 | 0.668 | 0.639 | 0.653 | 0.644 | 0.673 | 0.66 | 0.639 | 0.63 | 0.685 | 0.623 | 0.883 | 0.608 | 0.778 | 0.564 | 0.425 | 0.634 | 0.655 | 0.588 | 0.616 | 0.619
HCC-78 | 0.535 | 0.505 | 0.483 | 0.44 | 0.488 | 0.831 | 0.783 | 0.707 | 1.04 | 0.654 | 0.919 | 0.952 | 0.857 | 0.892 | 0.955 | 0.703 | 0.759 | 0.638 | 0.707 | 0.78
LXF-289 | 0.582 | 0.605 | 0.595 | 0.594 | 0.6 | 1.01 | 0.967 | 0.989 | 1.1 | 1.01 | 0.866 | 0.943 | 0.925 | 0.933 | 0.852 | 0.919 | 0.931 | 0.935 | 0.917 | 0.917
NCI-H460 | 0.225 | 0.125 | 0.217 | 0.156 | 0.35 | 1.23 | 1.01 | 1.02 | 0.646 | 0.159 | 0.0622 | 0.0628 | 0.0588 | 0.0628 | 0.063 | 1.01 | 0.995 | 1.28 | 1.06 | 1.21
NCI-H2023 | 0.321 | 0.318 | 0.374 | 0.345 | 0.4 | 1.01 | 1.02 | 0.808 | 0.686 | 0.296 | 0.264 | 0.271 | 0.23 | 0.233 | 0.23 | 0.937 | 1.09 | 1.08 | 0.995 | 0.96
SK-LU-1 | 0.407 | 0.416 | 0.416 | 0.376 | 0.384 | 0.781 | 0.871 | 0.744 | 0.366 | 0.247 | 1.03 | 1.02 | 1.01 | 0.919 | 0.792 | 0.831 | 0.695 | 0.834 | 0.736 | 0.936
NCI-H1734 | 0.372 | 0.348 | 0.364 | 0.255 | 0.358 | 1.03 | 0.875 | 0.79 | 0.862 | 0.63 | 0.399 | 0.366 | 0.437 | 0.369 | 0.456 | 0.878 | 0.835 | 0.846 | 0.77 | 0.897
PC-3 [JPC-3] | 0.522 | 0.547 | 0.511 | 0.506 | 0.572 | 0.837 | 0.801 | 0.859 | 0.789 | 0.744 |  | 1.13 | 1.18 | 1.11 | 0.907 | 0.758 | 0.789 | 0.769 | 0.768 | 0.778
HCC-827 | 0.222 | 0.517 | 0.449 | 0.446 | 0.481 | 1.05 | 1.02 | 1.07 | 1.02 | 1.01 |  | 0.249 | 0.231 | 0.258 | 0.274 | 1.03 | 1.04 | 0.961 | 1.03 | 1.02
